Source: the NIST ThermoML archive (doi:10.1021/acs.jced.5b00156)
± gives the expanded uncertainty stated by the source.

What was measured:
[1] = 101.33 kPa, Liquid; for viscosity: Concentric cylinders viscometry; for mass density: vibrating tube
[2] = refractive index (Na D-line) (dimensionless); conditions: 101.33 kPa, Liquid, Standard Abbe refractometry

Row | SMILES | viscosity ([1]; 288.15 K) [mPa·s] | mass density ([1]; 288.15 K) [kg/m3] | viscosity ([1]; 293.15 K) [mPa·s] | mass density ([1]; 293.15 K) [kg/m3] | viscosity ([1]; 298.15 K) [mPa·s] | mass density ([1]; 298.15 K) [kg/m3] | viscosity ([1]; 303.15 K) [mPa·s] | mass density ([1]; 303.15 K) [kg/m3] | viscosity ([1]; 308.15 K) [mPa·s] | mass density ([1]; 308.15 K) [kg/m3] | viscosity ([1]; 313.15 K) [mPa·s] | mass density ([1]; 313.15 K) [kg/m3] | viscosity ([1]; 318.15 K) [mPa·s] | mass density ([1]; 318.15 K) [kg/m3] | viscosity ([1]; 323.15 K) [mPa·s] | mass density ([1]; 323.15 K) [kg/m3] | refractive index ([2]; 288.15 K) | refractive index ([2]; 293.15 K) | refractive index ([2]; 298.15 K) | refractive index ([2]; 303.15 K) | further results
1 | COC(=O)c1ccccc1C(=O)OC [dimethyl 1,2-benzenedicarboxylate] | 23.53 ± 0.49 | 1196.23 ± 0.33 | 17.7 ± 0.37 | 1191.54 ± 0.33 | 13.93 ± 0.29 | 1186.87 ± 0.33 | 11.15 ± 0.23 | 1182.2 ± 0.33 | 9.123 ± 0.19 | 1177.55 ± 0.33 | 7.612 ± 0.16 | 1172.91 ± 0.32 | 6.453 ± 0.13 | 1168.28 ± 0.32 | 5.578 ± 0.12 | 1163.65 ± 0.32 | 1.51708 ± 0.00053 | 1.51494 ± 0.00053 | 1.51286 ± 0.00053 | 1.51083 ± 0.00053 | refractive index ([2]; 308.15 K): 1.50885 ± 0.00053; refractive index ([2]; 313.15 K): 1.50693 ± 0.00053; refractive index ([2]; 318.15 K): 1.50507 ± 0.00053; refractive index ([2]; 323.15 K): 1.50303 ± 0.00053
2 | COC(=O)CCCCC(=O)OC [dimethyl 1,6-hexanedioate] | 3.778 ± 0.079 | 1066.79 ± 0.28 | 3.313 ± 0.069 | 1061.92 ± 0.27 | 2.937 ± 0.062 | 1057.05 ± 0.27 | 2.629 ± 0.055 | 1052.18 ± 0.27 | 2.366 ± 0.05 | 1047.3 ± 0.27 | 2.143 ± 0.045 | 1042.41 ± 0.27 | 1.953 ± 0.041 | 1037.52 ± 0.26 | 1.794 ± 0.038 | 1032.62 ± 0.26 | 1.43082 ± 0.00053 | 1.42876 ± 0.00053 | 1.42669 ± 0.00053 | 1.42463 ± 0.00053 | refractive index ([2]; 308.15 K): 1.42255 ± 0.00053; refractive index ([2]; 313.15 K): 1.42048 ± 0.00053; refractive index ([2]; 318.15 K): 1.41835 ± 0.00053; refractive index ([2]; 323.15 K): 1.41631 ± 0.00053
